Experimental data: PubChem BioAssay (NCI)
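All cell lines were grown in 96-well plates and treated with compound for 48 hours. GI50 is the concentration that inhibits growth by half. Definition used: TGI = concentration required for complete inhibition of growth.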

How the values were obtained:
Assay in all cases: DTP human tumour cell line panel, 48 h
786-0 renal = tested on: 786-0 renal
A549 NSCLC = tested on: A549 NSCLC
ACHN renal = tested on: ACHN renal
BT-549 breast = tested on: BT-549 breast
CAKI-1 renal = tested on: CAKI-1 renal
CCRF-CEM leukemia = tested on: CCRF-CEM leukemia
COLO 205 colon = tested on: COLO 205 colon
DU-145 prostate = tested on: DU-145 prostate
EKVX NSCLC = tested on: EKVX NSCLC
HCC-2998 colon = tested on: HCC-2998 colon
HCT-116 colon = tested on: HCT-116 colon
HCT-15 colon = tested on: HCT-15 colon
HL-60(TB) leukemia = tested on: HL-60(TB) leukemia
HOP-62 NSCLC = tested on: HOP-62 NSCLC
HOP-92 NSCLC = tested on: HOP-92 NSCLC
HS 578T breast = tested on: HS 578T breast
HT29 colon = tested on: HT29 colon
IGROV1 ovarian = tested on: IGROV1 ovarian
KM12 colon = tested on: KM12 colon
LOX IMVI melanoma = tested on: LOX IMVI melanoma
M14 melanoma = tested on: M14 melanoma
MALME-3M melanoma = tested on: MALME-3M melanoma
MCF7 breast = tested on: MCF7 breast
MDA-MB-231 breast = tested on: MDA-MB-231 breast
MDA-MB-435 = tested on: MDA-MB-435
MOLT-4 leukemia = tested on: MOLT-4 leukemia
NCI-H226 lung = tested on: NCI-H226 lung
NCI-H23 lung = tested on: NCI-H23 lung
NCI-H460 lung = tested on: NCI-H460 lung
NCI-H522 lung = tested on: NCI-H522 lung
NCI/ADR-RES ovarian = tested on: NCI/ADR-RES ovarian
OVCAR-3 ovarian = tested on: OVCAR-3 ovarian
OVCAR-4 ovarian = tested on: OVCAR-4 ovarian
OVCAR-5 ovarian = tested on: OVCAR-5 ovarian
OVCAR-8 ovarian = tested on: OVCAR-8 ovarian
PC-3 prostate = tested on: PC-3 prostate
RPMI-8226 leukemia = tested on: RPMI-8226 leukemia
RXF 393 renal = tested on: RXF 393 renal
SF-268 CNS = tested on: SF-268 CNS
SF-295 CNS = tested on: SF-295 CNS
SF-539 CNS = tested on: SF-539 CNS
SK-MEL-2 melanoma = tested on: SK-MEL-2 melanoma
SK-MEL-28 melanoma = tested on: SK-MEL-28 melanoma
SK-MEL-5 melanoma = tested on: SK-MEL-5 melanoma
SK-OV-3 ovarian = tested on: SK-OV-3 ovarian
SN12C renal = tested on: SN12C renal
SNB-19 CNS = tested on: SNB-19 CNS
SNB-75 CNS = tested on: SNB-75 CNS
SR leukemia = tested on: SR leukemia
SW-620 colon = tested on: SW-620 colon
T-47D breast = tested on: T-47D breast
TK-10 renal = tested on: TK-10 renal
U251 CNS = tested on: U251 CNS
UACC-257 melanoma = tested on: UACC-257 melanoma
UACC-62 melanoma = tested on: UACC-62 melanoma
UO-31 renal = tested on: UO-31 renal

CCCCCCC/C(=N\N=C(N)N)c1ccc(O)cc1
GI50 (786-0 renal): 2.16 µM | TGI (786-0 renal): 5.31 µM | GI50 (A549 NSCLC): 2.88 µM | TGI (A549 NSCLC): 17.2 µM | GI50 (ACHN renal): 2.25 µM | TGI (ACHN renal): 5.13 µM | GI50 (BT-549 breast): 2.41 µM | TGI (BT-549 breast): 8.65 µM | GI50 (CAKI-1 renal): 2.8 µM | TGI (CAKI-1 renal): 11.8 µM | GI50 (CCRF-CEM leukemia): 1.96 µM | TGI (CCRF-CEM leukemia): 5.77 µM | GI50 (COLO 205 colon): 1.74 µM | TGI (COLO 205 colon): 3.16 µM | GI50 (DU-145 prostate): 3.15 µM | TGI (DU-145 prostate): 11 µM | GI50 (EKVX NSCLC): 2.71 µM | TGI (EKVX NSCLC): 14 µM | GI50 (HCC-2998 colon): 1.62 µM | TGI (HCC-2998 colon): 3 µM | GI50 (HCT-116 colon): 1.67 µM | TGI (HCT-116 colon): 3.41 µM | GI50 (HCT-15 colon): 3.48 µM | TGI (HCT-15 colon): 12.9 µM | GI50 (HL-60(TB) leukemia): 1.75 µM | TGI (HL-60(TB) leukemia): 3.65 µM | GI50 (HOP-62 NSCLC): 1.81 µM | TGI (HOP-62 NSCLC): 3.81 µM | GI50 (HOP-92 NSCLC): 0.692 µM | TGI (HOP-92 NSCLC): 3.19 µM | GI50 (HS 578T breast): 3.14 µM | TGI (HS 578T breast): 24.7 µM | GI50 (HT29 colon): 2.35 µM | TGI (HT29 colon): 6.25 µM | GI50 (IGROV1 ovarian): 2.28 µM | TGI (IGROV1 ovarian): 10.7 µM | GI50 (KM12 colon): 1.73 µM | TGI (KM12 colon): 3.52 µM | GI50 (LOX IMVI melanoma): 1.62 µM | TGI (LOX IMVI melanoma): 2.97 µM | GI50 (M14 melanoma): 1.71 µM | TGI (M14 melanoma): 3.18 µM | GI50 (MALME-3M melanoma): 1.77 µM | TGI (MALME-3M melanoma): 3.52 µM | GI50 (MCF7 breast): 1.71 µM | TGI (MCF7 breast): 4.43 µM | GI50 (MDA-MB-231 breast): 1.67 µM | TGI (MDA-MB-231 breast): 3.54 µM | GI50 (MDA-MB-435): 1.71 µM | TGI (MDA-MB-435): 3.44 µM | GI50 (MOLT-4 leukemia): 1.67 µM | TGI (MOLT-4 leukemia): 4.76 µM | GI50 (NCI-H226 lung): 2.2 µM | TGI (NCI-H226 lung): 6.63 µM | GI50 (NCI-H23 lung): 2.6 µM | TGI (NCI-H23 lung): 10.9 µM | GI50 (NCI-H460 lung): 1.82 µM | TGI (NCI-H460 lung): 3.68 µM | GI50 (NCI-H522 lung): 1.62 µM | TGI (NCI-H522 lung): 3.48 µM | GI50 (NCI/ADR-RES ovarian): 10 µM | TGI (NCI/ADR-RES ovarian): 23.2 µM | GI50 (OVCAR-3 ovarian): 2.23 µM | TGI (OVCAR-3 ovarian): 7.84 µM | GI50 (OVCAR-4 ovarian): 1.65 µM | TGI (OVCAR-4 ovarian): 12.3 µM | GI50 (OVCAR-5 ovarian): 3.83 µM | TGI (OVCAR-5 ovarian): 15.3 µM | GI50 (OVCAR-8 ovarian): 2.12 µM | TGI (OVCAR-8 ovarian): 5.26 µM | GI50 (PC-3 prostate): 2.17 µM | TGI (PC-3 prostate): 8.92 µM | GI50 (RPMI-8226 leukemia): 1.71 µM | TGI (RPMI-8226 leukemia): 4.3 µM | GI50 (RXF 393 renal): 1.94 µM | TGI (RXF 393 renal): 5.16 µM | GI50 (SF-268 CNS): 1.77 µM | TGI (SF-268 CNS): 5.31 µM | GI50 (SF-295 CNS): 1.77 µM | TGI (SF-295 CNS): 4.46 µM | GI50 (SF-539 CNS): 1.91 µM | TGI (SF-539 CNS): 4.4 µM | GI50 (SK-MEL-2 melanoma): 1.96 µM | TGI (SK-MEL-2 melanoma): 3.85 µM | GI50 (SK-MEL-28 melanoma): 1.73 µM | TGI (SK-MEL-28 melanoma): 3.28 µM | GI50 (SK-MEL-5 melanoma): 1.5 µM | TGI (SK-MEL-5 melanoma): 2.82 µM | GI50 (SK-OV-3 ovarian): 3.04 µM | TGI (SK-OV-3 ovarian): 11.2 µM | GI50 (SN12C renal): 2.76 µM | TGI (SN12C renal): 11.8 µM | GI50 (SNB-19 CNS): 2.13 µM | TGI (SNB-19 CNS): 10.6 µM | GI50 (SNB-75 CNS): 1.58 µM | TGI (SNB-75 CNS): 5.41 µM | GI50 (SR leukemia): 1.67 µM | TGI (SR leukemia): 3.96 µM | GI50 (SW-620 colon): 1.65 µM | TGI (SW-620 colon): 3.35 µM | GI50 (T-47D breast): 1.87 µM | TGI (T-47D breast): 4.89 µM | GI50 (TK-10 renal): 5.53 µM | TGI (TK-10 renal): 18 µM | GI50 (U251 CNS): 1.54 µM | TGI (U251 CNS): 2.87 µM | GI50 (UACC-257 melanoma): 1.76 µM | TGI (UACC-257 melanoma): 3.81 µM | GI50 (UACC-62 melanoma): 1.55 µM | TGI (UACC-62 melanoma): 3.26 µM | GI50 (UO-31 renal): 2.38 µM | TGI (UO-31 renal): 12.1 µM
